Data as given in ChEMBL document CHEMBL5606459, “ASAP - WNV NS2B-NS3 protease fluorescence single point” (2024).

molecular target: T1, NS3 (West Nile virus) (UniProt K4FQI5); assay: (§1) Functional biochemical assay to identify treatments for viral infectious disease that targets West Nile NS2B-NS3 protease. Utilizing a direct enzyme activity measurement method, reading the fluorescence intensity is used to characterize the relative potency of inhibitors as % inhibition. Synthetic construct has been made based on West Nile virus (strain NY-99) by Centre for Medicines Discovery, University of Oxford, and the assay has been performed by Stanford University.The protocol is publicly available: dx.doi.org/10.17504/protocols.io.ewov1dy37vr2/v1; conditions: Concentration 50.0 uM, Number of replicates 1.0
T1 sequence (whole entry): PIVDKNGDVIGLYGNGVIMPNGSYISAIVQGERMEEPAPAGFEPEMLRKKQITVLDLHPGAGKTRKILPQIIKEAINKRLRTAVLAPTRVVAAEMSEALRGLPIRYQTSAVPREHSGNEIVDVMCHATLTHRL

Row | SMILES | inhibition
1 | O=Cc1nc(-c2ccccc2Cl)n2ccccc12 | 41%
2 | Cc1c(C=O)c2ccccn2c1C(=O)c1ccncc1 | 63.6%
3 | O=Cc1ccc(N2CCCCC2)cc1 | 36.7%
4 | CN(C)c1ccc(C=C(C#N)C(N)=O)cc1 | 38.2%
5 | O=Cc1ccc(N2CCC(C(=O)O)CC2)o1 | 65.4%
6 | Nc1ccc2ccc(B(O)O)cc2c1 | -5.6%
7 | Cc1c(C=O)c2ccccn2c1C#N | 49.8%
8 | CC[C@H]1CO[C@H](C)CN1c1ccc(C=O)cn1 | 61.8%
9 | O=Cc1ccc(N2CCCCCC2)cc1 | 57%
10 | Cc1cc(NS(=O)(=O)c2ccc(S(=O)(=O)F)cc2)c[nH]c1=O | 14.8%
11 | Cc1nc(C=O)c2ccccn12 | 33.8%
12 | O=Cc1ccc(N2CCC(C(=O)O)CC2)cc1 | 69.5%

molecular target: T1, NS3 (West Nile virus); assay: as §1, with “Weizmann Institute of Science.The” for “Stanford University.The”, “dx.doi.org/10.17504/protocols.io.q26g7yebkgwz/v3” for “dx.doi.org/10.17504/protocols.io.ewov1dy37vr2/v1”; conditions: Concentration 50.0 uM, Number of replicates 2.0, Standard deviation 2.0262748168953313 %

Row | SMILES | inhibition
13 | N=C(N)NCCC[C@H](NC(=O)c1nccs1)C(=O)N[C@@H](CCCCN)C(=O)N[C@@H](C(N)=O)c1ccc(OCc2ccc(C(F)(F)F)cc2)cc1 | 80.2%

same assay, conditions: Concentration 50.0 uM, Number of replicates 2.0, Standard deviation 6.952329816266579 %

Row | SMILES | inhibition
14 | O=C1c2c(O)ccc([N+](=O)[O-])c2C(=O)c2c([N+](=O)[O-])ccc(O)c21 | 4.86%

same assay, conditions: Concentration 100.0 uM, Number of replicates 2.0, Standard deviation 1.865400633304037 %

Row | SMILES | inhibition
15 | O=C1c2c(O)ccc([N+](=O)[O-])c2C(=O)c2c([N+](=O)[O-])ccc(O)c21 | 22.8%

same assay, conditions: Concentration 100.0 uM, Number of replicates 2.0, Standard deviation 12.945380917885936 %

Row | SMILES | inhibition
16 | N=C(N)NCCC[C@H](NC(=O)c1nccs1)C(=O)N[C@@H](CCCCN)C(=O)N[C@@H](C(N)=O)c1ccc(OCc2ccc(C(F)(F)F)cc2)cc1 | 119%
